Measurements published in PMC6335420, “The cell cycle regulator GpsB functions as cytosolic adaptor for multiple cell wall enzymes” (Nature Communications, 2019).
Entries after “also recorded” stand apart in the source; their conditions may differ. Residues, ends and D or L forms follow the SMILES beside them. *: point of attachment. Fluorescein(5-Mal) = O=C1OC2(c3ccc(O)cc3Oc3cc(O)ccc32)c2ccc(N3C(=O)CC(*)C3=O)cc21; X1 = CN(C)c1ccc2c(-c3ccc(N4C(=O)CC(*)C4=O)cc3C(=O)[O-])c3ccc(=[N+](C)C)cc-3oc2c1; 5FAM = O=C1OC2(c3ccc(O)cc3Oc3cc(O)ccc32)c2ccc(C(=O)*)cc21

B1: LmMreC: L. monocytogenes MreC (protein)
chain: MPQFFLNKRLIILLISIIVLVALVGFSLRDRENASWPEQFVKDVVGFGENIVAKPTSFISGAVDGVVDLKNTYTENQHLKERLEELAQLESEVADLKKENKDLKESLDITDSIRDYDPLNASVISRNPTNWNDQVEIDKGSSDGVKPDMAVTTPSGLIGKVTTTGAKSATVELLTSSDVKNRVSAKVQGKENAFGIINGYDSDTKLLELKQLPYDMKFKKGQKVVTSGLGGKFPAGIFIGTIEKVETDKMGLSQTAFIKPGADMYDLNHVTVLKRSAEAGTTDDDTTSSDTTGGQ
modifications: left off: T25 fragment of Bordetella pertussis adenylate cyclase (vectors pKT25 and p25-N), end not stated, kept
notes: L. monocytogenes MreC
B2: LmSepF: L. monocytogenes SepF (protein)
chain: MGLSNKFKSFFFLDEEEEYYEEEVAREPEPMQKKTKKEKPNKNRFYAVEEDDAKVVSMQGAQFSSRMVLAEPRVYAEAQELADYLKEYKSVVVNLQRISHDQATRIVDFLSGTVYALGGDIQRVGNNIFLCTPDNVEVDGSISEMLDEQNFM
modifications: left off: T25 fragment of Bordetella pertussis adenylate cyclase (vectors pKT25 and p25-N), end not stated, kept
notes: L. monocytogenes SepF
B3: LmGpsB: L. monocytogenes GpsB (self-interaction) (protein)
chain: MTSEQFEYHLTGKEILEKEFKTGLRGYSPEDVDEFLDMVIKDYSTFTQEIEALQAENIRLVQELDNAPLRTSTQPAPTFQAAAQPAGTTNFDILKRLSNLEKHVFGNKLDDNE
modifications: left off: T18 fragment of Bordetella pertussis adenylate cyclase, C-terminal, kept
B4: LmDivIB: L. monocytogenes DivIB (protein)
chain: MAENKRVISIENRIPELKKYRKKKLVRHLAILIGIFVILIAITLYFLSPLSKLDKIAVSGNKQLTENEVRKESGLEIGEFVIGISNGKTEDALKKNTLIKDATVSKEGLNDVQINITEFKTIGYQQQDGKYYDVLESGIMLTDQPRQFPIGNDLLFQNFKNGKTLEKMVDQINKLPKDVVSSISEVIYSPTKSDKNHIKLYMNDGNQVSADISTFAEKMQHYPAIVAQLAKGQKGVIDIEVGSYFQSYYQQNAEKKATEEAAKEKKETNE
modifications: left off: T25 fragment of Bordetella pertussis adenylate cyclase (vector pKT25), end not stated, kept
notes: L. monocytogenes DivIB

How the values were obtained:
SpGpsB1-63 = target: T1, SpGpsB1-63 (Streptococcus pneumoniae, UniProt Q8DR57); assay: Fluorescence polarisation binding to SpGpsB1-63; details: FP; for reduction in affinity for SpGpsB1-63: relative to wild-type SpPBP2a23-45
T1 construct: The SpGpsB1-63 expression construct (pET28SpGpsB1-63) was prepared by PCR amplification of gpsB; His6 (N, cleaved yes); made in house; host or cells: E. coli BL21(DE3)
Description: 75 the BsGpsB5-64:BsPBP11-17 complex.

LmGpsB = assay: BACTH (bacterial two-hybrid) interaction with LmGpsB; assay type: cell-based, Listeria monocytogenes; details: E. coli BTH101, 30 °C, photographed after 24 and 48 h; LmPBPA1 variants as T25-PBPA1ΔGT-TP
Description: The BACTH system[63] was used for analysis of protein:protein interactions. First, LmGpsB was screened against LmPBPA1 (lmo1892) variants to identify residues in LmPBPA1 that are important for binding LmGpsB. To facilitate screening, we used a T25 fragment of Bordetella pertussis adenylate cyclase that had been fused to the N-terminal 91 amino acids of LmPBPA1 to create a T25-LmPBPA1 fusion containing the N-terminal cytoplasmic mini-domain and the transmembrane helix, but lacking lacking the extracellular glycosyltransferase and transpeptidase domains (T25-PBPA1ΔGT-TP) in plasmid pSH437[21]. LmPBPA1 residues that corresponded to the BsGpsB binding motif of BsPBP1 (Thr7, Arg8, Tyr11, Arg12) and additional positively charged amino acids (Lys14, Lys20, Lys21, Lys22, Lys25, Arg26, Lys28 and Arg29) in T25-PBP A1ΔGT-TP were replaced with alanine prior to screening against GpsB-T18. The pSH437 plasmid was mutated by Quikchange mutagenesis using the primer pairs SHW744/SHW754 (T7A, pSH485), SHW746/SHW747 (R8A, pSH486), SHW755/SHW756 (Y11A, pSH487), SHW748/SHW749 (R12A, pSH488), SHW757/SHW758 (K14A, pSH489), SHW759/SHW760 (K20A, pSH490), SHW761/SHW762 (K21A, pSH491), SHW763/SHW764 (K22A, pSH492), SHW765/SHW766 (K25A, pSH493), SHW767/SHW768 (R26A, pSH494), SHW769/SHW770 (K28A, pSH495) and SHW771/SHW772 (R29A, pSH496).
pJR164 and pJR169 were constructed by cloning sepF (primers JR334/JR335 and XbaI/KpnI digestion) into pKT25 and p25-N, respectively. pJR165 and pJR170 were generated by cloning ezrA into pKT25 and p25-N, respectively, using primers JR339/JR340 and XbaI/KpnI for digestion. pJR172 and pJR174 were obtained by cloning zapA into pKT25 and p25-N, respectively, using primers JR337/JR338 and PstI/KpnI. pJR213 was constructed by amplification of divIB with primers JR353/JR354 and cloning into pKT25 using XbaI/KpnI. pJR214 was generated by PCR amplification of divIC with primers JR355/JR356 and cloning into pKT25 using XbaI/KpnI. mreBH was amplified by PCR using oligonucleotides JR368/JR369 and cloned into pKT25 and p25-N using XbaI/KpnI, resulting in pJR233 and pJR236, respectively. pJR242 and pJR243 were obtained by cloning mreC into pKT25 and p25-N, respectively, using primers JR364/JR365 and PstI/KpnI digestion. pbpA2 was cloned into pKT25 using oligonucleotides SHW153/SHW154 and XbaI/KpnI to create pJR250. pbpB1 was amplified with primers SHW157/SHW158 and cloned with SmaI/EcoRI into pKT25, yielding pSH236. pbpB2 was amplified with primers SHW155/SHW156 and cloned into pKT25 after PstI/BamHI digestion, yielding plasmid pSH235. pbpB3 was amplified using primers SHW159/160 and cloned by PstI/BamHI digestion into pKT25, resulting in pSH237. Finally, pSH484 was obtained by removing the N-terminal domain from gpsB present on plasmid pSH226 in a PCR with the primer pair SHW752/SHW753.
Plasmids encoding the respective genes fused to the N- or C-termini of the T18- or the T25-fragment of the Bordetella pertussis adenylate cyclase were co-transformed into E. coli BTH101. Transformants were selected on LB agar plates containing ampicillin (100 µg^−1mL^−1), kanamycin (50 µg^−1mL^−1), X-Gal (40 µg^−1mL^−1) and IPTG (0.1 mM) and photographs were taken after 24 and 48h growth at 30 °C. The BACTH experiments in Fig. 2b and Supplementary Figure 3C, D were repeated at least twice.

Row | Molecule | BACTH interaction with LmGpsB (LmGpsB) | further results
1 | CC[C@H](C)[C@H](NC(=O)[C@@H]1CCCN1C(=O)[C@H](CSC1CC(=O)N(c2ccc(-c3c4ccc(=[N+](C)C)cc-4oc4cc(N(C)C)ccc34)c(C(=O)[O-])c2)C1=O)NC(=O)[C@@H](NC(=O)[C@H](CCC(N)=O)NC(=O)[C@H](C)NC(=O)[C@H](CC(C)C)NC(=O)[C@H](CCCCN)NC(=O)[C@H](CCCCN)NC(=O)[C@H](CCCNC(=N)N)NC(=O)[C@H](CC(=O)O)NC(=O)[C@H](CO)NC(=O)[C@H](CCCCN)NC(=O)[C@H](CO)NC(=O)[C@H](CCCCN)NC(=O)[C@H](CCCNC(=N)N)NC(=O)[C@H](CC(C)C)NC(=O)[C@@H](NC(=O)[C@@H](NC(=O)[C@H](CO)NC(=O)[C@H](CC(=O)O)NC(=O)[C@H](CO)NC(=O)[C@H](CC(=O)O)NC(=O)[C@H](CCSC)NC(=O)[C@H](CO)NC(=O)CN)[C@@H](C)O)[C@@H](C)CC)C(C)C)C(=O)O (some centres unmarked) [TAMRA-SpPBP2a23-45 Arg31LysArg33Lys] (H-GSMDSDSTILRKSKSDRKKLAQVC(X1)PI-OH) |  | reduction in affinity for SpGpsB1-63 (SpGpsB1-63): > 25 fold
2 | CC[C@H](C)[C@H](NC(=O)[C@H](CC(C)C)NC(=O)[C@H](CCCNC(=N)N)NC(=O)[C@H](CCSC)NC(=O)CNC(=O)c1ccc2c(c1)C(=O)OC21c2ccc(O)cc2Oc2cc(O)ccc21)C(=O)N[C@@H](CS)C(=O)N[C@@H](CCSC)C(=O)N[C@@H](CCCNC(=N)N)C(=O)N[C@@H](CCCCN)C(=O)N[C@@H](Cc1ccccc1)C(=O)N[C@@H](CC(N)=O)C(=O)N[C@@H](CO)C(=O)N[C@@H](Cc1c[nH]cn1)C(=O)N[C@@H](CO)C(=O)N[C@H](C(=O)N1CCC[C@H]1C(=O)N[C@H](C(=O)N[C@@H](CCCNC(=N)N)C(=O)O)[C@@H](C)CC)[C@@H](C)CC [Fluorescein-SpPBP2b1-17] (5FAM-GMRLICMRKFNSHSIPIR-OH; N-terminus and C-terminus assumed) |  | binding to SpGpsB1-63 (in words) (SpGpsB1-63): not
3 | CC[C@H](C)[C@H](NC(=O)[C@@H]1CCCN1C(=O)[C@H](CSC1CC(=O)N(c2ccc(-c3c4ccc(=[N+](C)C)cc-4oc4cc(N(C)C)ccc34)c(C(=O)[O-])c2)C1=O)NC(=O)[C@@H](NC(=O)[C@H](CCC(N)=O)NC(=O)[C@H](C)NC(=O)[C@H](CC(C)C)NC(=O)[C@H](CCCCN)NC(=O)[C@H](CCCCN)NC(=O)[C@H](CCCNC(=N)N)NC(=O)[C@H](CC(=O)O)NC(=O)[C@H](CO)NC(=O)[C@H](CCCNC(=N)N)NC(=O)[C@H](CO)NC(=O)[C@H](CCCCN)NC(=O)[C@H](CCCNC(=N)N)NC(=O)[C@H](CC(C)C)NC(=O)[C@@H](NC(=O)[C@@H](NC(=O)[C@H](CO)NC(=O)[C@H](CC(=O)O)NC(=O)[C@H](CO)NC(=O)[C@H](CC(=O)O)NC(=O)[C@H](CCSC)NC(=O)[C@H](CO)NC(=O)CN)[C@@H](C)O)[C@@H](C)CC)C(C)C)C(=O)O (some centres unmarked) [TAMRA-SpPBP2a23-45 Arg31Lys] (H-GSMDSDSTILRKSRSDRKKLAQVC(X1)PI-OH) |  | reduction in affinity for SpGpsB1-63 (SpGpsB1-63): 2 fold
4 | CC[C@H](C)[C@H](NC(=O)[C@@H](NC(=O)[C@H](CCCNC(=N)N)NC(=O)[C@H](CCCCN)NC(=O)[C@@H](NC(=O)[C@H](Cc1c[nH]c2ccccc12)NC(=O)[C@H](CCC(=O)O)NC(=O)[C@H](CCSC)NC(=O)CNC(=O)[C@H](CO)NC(=O)CNC(=O)[C@H](CO)NC(=O)CN)[C@@H](C)O)C(C)C)C(=O)N[C@@H](CCCNC(=N)N)C(=O)N[C@@H](Cc1ccc(O)cc1)C(=O)N[C@@H](C)C(=O)N[C@H](C(=O)N[C@@H](CCCCN)C(=O)N[C@@H](CC(N)=O)C(=O)N[C@@H](CCCNC(=N)N)C(=O)N[C@@H](CCCCN)C(=O)N[C@@H](CO)C(=O)N1CCC[C@H]1C(=O)N[C@@H](C)C(=O)N[C@@H](CCC(=O)O)C(=O)N[C@@H](CC(N)=O)C(=O)N[C@@H](CCCNC(=N)N)C(=O)N[C@@H](CCCNC(=N)N)C(=O)N[C@@H](CCCNC(=N)N)C(=O)N[C@H](C(=O)NCC(=O)N[C@@H](CCCCN)C(=O)N[C@@H](CO)C(=O)N[C@@H](CC(C)C)C(=O)N[C@@H](CSC1CC(=O)N(c2ccc3c(c2)C(=O)OC32c3ccc(O)cc3Oc3cc(O)ccc32)C1=O)C(=O)N[C@@H](CO)C(=O)O)C(C)C)[C@@H](C)O (some centres unmarked) [Fluorescein-SpPBP2x1-29] (H-GSGSGMEWTKRVIRYATKNRKSPAENRRRVGKSLC(Fluorescein(5-Mal))S-OH; N-terminus and C-terminus assumed) |  | binding to SpGpsB1-63 (in words) (SpGpsB1-63): interacts
5 | B1 | turned blue after one day of incubation; also recorded: turned blue after 2 days incubation | 
6 | B2 | turned blue after one day of incubation | 
7 | B3 | turned blue after one day of incubation | 
8 | B4 | turned blue after 2 days incubation | 
